In one test the target is T1, MAT2A homodimer (Homo sapiens, UniProt P31153).
T1 construct: inferred from Ni sepharose purification and imidazole elution; made in house; host or cells: SF9 insect cells, recombinant baculovirus (Bac to Bac, pFASTBAC1)
In words: MAT2A biochemical assay (phosphate release, PiColorLock Gold). The conditions noted are these: recombinant MAT2A homodimer, 60 min pre-incubation, 25° C.; read-out: Enzyme Inhibition. The procedure: Mat2A protein was expressed by recombinant baculovirus in SF9 infected cells using the Bac to Bac system cloned into the pFASTBAC1 vector (Invitrogen, Carlsbad, CA). Recombinant MAT2A was isolated from the cell lysate of 150 g of infected cells using HP Ni sepharose column chromatography. Recombinant MAT2A homodimer was eluted with 250 and 500 mM imidazole, and fractions containing MAT2A were identified by sodium dodecyl sulfate polyacrylamide gel electrophoresis and pooled.
For determination of the inhibitory potency of compounds against the MAT2A homodimer, protein was diluted to 4 μg/mL in assay buffer (50 mM Tris, pH 8.0, 50 mM KCl, 15 mM MgCl2, 0.3 mM EDTA, 0.005% [w/v] bovine serum albumin [BSA]). Test compound was prepared in 100% dimethyl sulfoxide (DMSO) at 50× the desired final concentration. A 1 μL volume of compound dilution was added to 40 μL of enzyme dilution and the mixture was allowed to equilibrate for 60 minutes at 25° C. The enzymatic assay was initiated by the addition of 10 μL of substrate mix (500 μM ATP, pH 7.0, 400 μM L-methionine in 1× assay buffer), and the mixture was incubated for a further 60 minutes at 25° C. The reaction was halted and the liberated phosphate released by the enzyme in stoichiometric amounts by the production of S-adenosyl methionine (SAM) was measured using the PiColorLock Gold kit (Innova Biosciences, UK). Absolute product amounts were determined by comparison to a standard curve of potassium phosphate buffer, pH 8.0.

Test [1] has as its system MAT2A activity (SAM) in HCT116 cells with deleted MTAP gene. The experiment in a line: Cellular assay of target engagement (SAM) by LC-MS/MS. Type of test: cell-based. To be noted: Homo sapiens, HCT-116; HCT116 MTAP −/−, 72 hrs; read-out: Cell 72 h SAM Inhibition (MTAP −/−). As for the experimental part: Measurement of MAT2A activity in cells was made by direct quantitation of the abundance of the product of its enzymatic activity, SAM. Cancer cells were treated with candidate MAT2A inhibitors for a suitable incubation period, and the cells were then lysed using a reagent which quenched any further enzyme activity. Soluble metabolites including SAM were collected and SAM itself was directly measured from the lysate using quantitative LC-MS/MS.
A typical assay was performed using an HCT116 human colon carcinoma cell line which was genetically engineered to delete the MTAP gene (commercially available from Horizon Discovery). This cell line was utilized because it was determined that loss of the MTAP gene predicts sensitivity to MAT2A inhibitors. Cells were plated in 96-well dishes at appropriate cell density. Following 24 hours, cells were then treated with the candidate MAT2A inhibitor. Prior to addition to cells, the compound was first serially diluted in 100% DMSO, typically as a 3-fold serial dilution starting at 500× top dose with 10 dose points including DMSO only control. Compound was then transferred to a working stock plate in cell culture media by adding 5 μL of compound in DMSO to 495 μL of cell culture media. This working stock was then added to cells via a further 5-fold dilution, by adding 25 μL of working stock to 100 μL of cells in culture media. Following compound addition, cells were incubated at 37° C./5% CO2 for 72 hrs.
To quantitate SAM levels following compound treatment, cells were gently washed once in ammonium carbonate buffer (75 mM at pH 7.4), placed on dry ice, and lysed with metabolite extraction buffer (80% cold methanol and 20% water (v/v) with acetic acid at 1M final concentration with 200 ng/mL deuterated d3-SAM as internal control). Following centrifugation at 4° C. at 3,200 rpm for 30 minutes, the supernatant was collected and stored at −80° C. until analysis by Liquid Chromatography with tandem Mass Spectrometry (LC-MS/MS). LC-MS/MS analysis was performed using an API6500 Mass Spectrometer (Sciex, Framingham, MA, USA) operating in positive ion spray mode and equipped with a Waters UPLC Acquity (Waters, Milford, MA, USA) BEH Amide column. Multiple Reaction Monitoring data was acquired for SAM and the d3-SAM standard, using a mass transition pair at m/z 399.2→250.1 and 402.2→250.1, respectively. In a typical LC-MS/MS analysis, the initial flow rate was 0.5 ml/min of 25% mobile phase A (acetonitrile and water at 5:95 (v/v) with 1% formic acid and 10 mM ammonium acetate) and 75% mobile phase B (acetonitrile and water at 95:5 (v/v) with 1% formic acid and 10 mM ammonium acetate), 0.2-0.5 minutes with 75%-35% mobile phase B, 25%-65% mobile phase A, at 0.5 min 65% mobile phase A and 35% mobile phase B, 1.0-1.1 minutes with 35%-75% mobile phase B, 65%-25% mobile phase A, at 1.1 min 25% mobile phase A and 75% mobile phase B with a total run time of 1.5 minutes.

In another test the test system is HCT116 MTAP−/−. The experiment in a line: Inhibition of cellular proliferation (Cell Titer Glo), HCT116 MTAP-/-. The test is classed as cell-based. The conditions noted are these: Homo sapiens, HCT-116, 96 h, 4 days, read-out: 4 Day Relative Growth Inhibition (MTAP −/−). As for the experimental part: (§1) Test compound impact on cancer cell growth was assessed by treating cancer cells with compound for 4 days and then measuring proliferation using an ATP-based cell proliferation readout (Cell Titer Glo, Promega Corporation).
(§2) In a typical assay an isogenic pair of HCT116 human colon carcinoma cell lines which vary only in MTAP deletion status (HCT116 MTAP+/+ and HCT116 MTAP−/−) were plated in 96-well dishes at appropriate cell density. Following 24 hours, cells were then treated with the candidate MAT2A inhibitor. Prior to addition to cells, the compound was first serially diluted in 100% DMSO, typically as a 3-fold serial dilution starting at 500× top dose with 10 dose points including DMSO only control. Compound was then transferred to a working stock plate in cell culture media by adding 5 μL of compound in DMSO to 495 μL of cell culture media. This working stock was then added to cells via a further 5-fold dilution, by adding 25 μL of working stock to 100 μL of cells in culture media. Following compound addition, cells were incubated at 37° C./5% CO2 for 4 days.
(§3) To measure inhibition of cellular proliferation, cells were allowed to equilibrate to room temperature for 30 minutes, and were then treated with 125 μL of Cell Titer Glo reagent. The plate was then covered with aluminum foil and shaken for 15 minutes to ensure complete mixing and full cell lysis. Luminescent signal was then measured using a plate-based luminometer Veritas version 1.9.2 using ATP standard curve to confirm assay reproducibility from run to run. This luminescence measure was converted to a proliferation index by subtracting from each data point the ATP luminescence signal measured from a bank (no cells) well and dividing by the ATP luminescence signal measured in 0.2% DMSO control well adjusted for signal in blank well. Compound activity was then represented as a percentage change in proliferation relative to a within-plate DMSO control against log 10 of compound concentration in molar (M) units.

In the next test the test system is HCT116 MTAP+/+. The experiment in a line: Inhibition of cellular proliferation (Cell Titer Glo), HCT116 MTAP+/+. Type of test: cell-based. The conditions noted are these: Homo sapiens, HCT-116, 96 h, 4 days, read-out: 4 Day Relative Growth Inhibition (MTAP +/+). As for the experimental part: as §1, §2, §3

Structures are written as SMILES.

T1 sequence (P31153 whole entry): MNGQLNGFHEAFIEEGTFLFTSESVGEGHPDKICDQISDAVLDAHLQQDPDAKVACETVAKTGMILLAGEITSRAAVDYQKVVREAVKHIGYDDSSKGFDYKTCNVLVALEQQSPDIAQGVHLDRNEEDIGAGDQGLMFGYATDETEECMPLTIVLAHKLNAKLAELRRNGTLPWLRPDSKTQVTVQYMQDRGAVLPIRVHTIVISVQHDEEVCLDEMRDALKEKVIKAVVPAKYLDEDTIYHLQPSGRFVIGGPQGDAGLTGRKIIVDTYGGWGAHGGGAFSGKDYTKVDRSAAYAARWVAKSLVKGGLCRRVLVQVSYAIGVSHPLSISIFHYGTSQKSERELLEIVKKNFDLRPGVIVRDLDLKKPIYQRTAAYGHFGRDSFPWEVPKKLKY

On to `CCOc1ccc2nn(-c3ccc4nn(C)cc4c3)c(=O)c(-c3ccc(OC(F)(F)F)cc3)c2n1` [Example 104], for which the IC50 at MAT2A homodimer was less than 100 nM; in test [1], 100 to 1000 nM; with HCT116 MTAP−/− it was 100 to 1000 nM; in the test on HCT116 MTAP+/+ it was no less than 1000 nM.

As to `COc1ccc(-n2nc3ccc(OCC(F)F)nc3c(-c3ccc(OC(F)F)cc3)c2=O)cc1` [Example 105], the IC50 on MAT2A homodimer is less than 100 nM; in test [1], 100 to 1000 nM; in the test with HCT116 MTAP−/−, 100 to 1000 nM; with HCT116 MTAP+/+, no less than 1000 nM.

As to `COc1ccc(-c2c(=O)n(-c3ccc4nn(C)cc4c3)nc3ccc(OCC(F)F)nc23)cc1` [Example 106], the IC50 was less than 100 nM on MAT2A homodimer, less than 100 nM in test [1], less than 100 nM in the test with HCT116 MTAP−/− and 100 to 1000 nM in the test with HCT116 MTAP+/+.

With `Cn1cc2cc(-n3nc4ccc(OCC(F)F)nc4c(-c4ccc(C5CC5)nc4)c3=O)ccc2n1` [Example 107], the IC50 at MAT2A homodimer is less than 100 nM; in test [1] it was less than 100 nM; in the test on HCT116 MTAP−/−, less than 100 nM; in the test with HCT116 MTAP+/+ it was no less than 1000 nM.

For `[2H]C([2H])([2H])Oc1ccc(-c2c(=O)n(-c3ccc4nn(C)cc4c3)nc3ccc(OCC(F)F)nc23)cc1` [Example 108], the IC50 on MAT2A homodimer was less than 100 nM; in test [1] it was less than 100 nM; in the test on HCT116 MTAP−/−, less than 100 nM; with HCT116 MTAP+/+ it was no less than 1000 nM.

Turning to `Cn1cc2cc(-n3nc4ccc(OCC(F)F)nc4c(-c4ccc(OC(F)(F)F)cc4)c3=O)ccc2n1` [Example 109], the IC50 is less than 100 nM on MAT2A homodimer, less than 100 nM in test [1], less than 100 nM in the test with HCT116 MTAP−/− and no less than 1000 nM in the test with HCT116 MTAP+/+.

As to `[2H]C([2H])([2H])Oc1ccc(-c2c(=O)n(-c3ccc4nn(C)cc4c3)nc3ccc(OCC)nc23)cc1` [Example 110], the IC50 is less than 100 nM on MAT2A homodimer, less than 100 nM in test [1], less than 100 nM in the test on HCT116 MTAP−/− and 100 to 1000 nM in the test with HCT116 MTAP+/+.

As to `CCCOc1ccc2nn(-c3ccc4nn(C)cc4c3)c(=O)c(-c3ccc(OC(F)F)cc3)c2n1` [Example 111], the IC50 at MAT2A homodimer was less than 100 nM; in test [1], less than 100 nM; in the test on HCT116 MTAP−/− it was less than 100 nM; with HCT116 MTAP+/+, no less than 1000 nM.

Consider `CCOc1ccc2nn(-c3ccc(OC)cc3)c(=O)c(-c3ccc(C)nc3)c2n1` [Example 112], for which the IC50 on MAT2A homodimer is less than 100 nM; in test [1] it was 100 to 1000 nM; in the test with HCT116 MTAP−/− it was 100 to 1000 nM; with HCT116 MTAP+/+ it was no less than 1000 nM.

For `Cn1cc2cc(-n3nc4ccc(OC5CC5)nc4c(-c4ccc(Cl)cc4)c3=O)ccc2n1` [Example 113], the IC50 is less than 100 nM on MAT2A homodimer, less than 100 nM in test [1], 100 to 1000 nM in the test with HCT116 MTAP−/− and no less than 1000 nM in the test with HCT116 MTAP+/+.

Turning to `Cn1cc2cc(-n3nc4ccc(OCC(F)F)nc4c(-c4ccc(C5CC5)cc4)c3=O)ccc2n1` [Example 114], the IC50 at MAT2A homodimer is less than 100 nM; in test [1], less than 100 nM; in the test with HCT116 MTAP−/− it was less than 100 nM; with HCT116 MTAP+/+, no less than 1000 nM.

`CCOc1ccc2nn(-c3ccc4nn(C)cc4c3)c(=O)c(-c3ccc(OC)cc3)c2n1` [Example 115]: the IC50 is less than 100 nM on MAT2A homodimer, less than 100 nM in test [1], less than 100 nM in the test with HCT116 MTAP−/− and 100 to 1000 nM with HCT116 MTAP+/+.

Regarding `Cn1cc2cc(-n3nc4ccc(OCC(F)(F)F)nc4c(-c4ccc(Cl)cc4)c3=O)ccc2n1` [Example 116], the IC50 on MAT2A homodimer is less than 100 nM; in test [1], less than 100 nM; in the test with HCT116 MTAP−/− it was less than 100 nM; with HCT116 MTAP+/+, no less than 1000 nM.

For the compound `CCOc1ccc2nn(-c3ccc(OC)cc3)c(=O)c(-c3ccc(Cl)cc3)c2n1` [Example 117], the IC50 on MAT2A homodimer was less than 100 nM; in test [1] it was less than 100 nM; in the test with HCT116 MTAP−/−, less than 100 nM; in the test with HCT116 MTAP+/+ it was no less than 1000 nM.

On to `CCOc1ccc2nn(-c3ccc4nn(C)cc4c3)c(=O)c(-c3ccc(Cl)cc3)c2n1` [Example 119], for which the IC50 at MAT2A homodimer is less than 100 nM; in test [1], less than 100 nM; in the test with HCT116 MTAP−/−, less than 100 nM; with HCT116 MTAP+/+ it was no less than 1000 nM.

As to `CCOc1ccc2nn(-c3ccc4nn(C)cc4c3)c(=O)c(-c3ccc(OC(F)F)nc3)c2n1` [Example 120], the IC50 was less than 100 nM at MAT2A homodimer, less than 100 nM in test [1], less than 100 nM in the test with HCT116 MTAP−/− and no less than 1000 nM in the test with HCT116 MTAP+/+.

Turning to `CCOc1ccc2nn(-c3ccc4nn(C)cc4c3)c(=O)c(-c3ccc(OC(F)(F)F)nc3)c2n1` [Example 121], the IC50 is less than 100 nM at MAT2A homodimer, less than 100 nM in test [1], less than 100 nM with HCT116 MTAP−/− and no less than 1000 nM with HCT116 MTAP+/+.

With `CCOc1ccc2nn(-c3ccc(OC)cc3)c(=O)c(-c3ccc(OC(F)F)nc3)c2n1` [Example 122], the IC50 is less than 100 nM on MAT2A homodimer, 100 to 1000 nM in test [1], less than 100 nM with HCT116 MTAP−/− and no less than 1000 nM in the test with HCT116 MTAP+/+.

Regarding `Cn1cc2cc(-n3nc4ccc(OCC(F)(F)F)nc4c(-c4ccc(OC(F)F)cc4)c3=O)ccc2n1` [Example 123], the IC50 was less than 100 nM at MAT2A homodimer, less than 100 nM in test [1], less than 100 nM with HCT116 MTAP−/− and 100 to 1000 nM in the test on HCT116 MTAP+/+.

`Cn1cc2cc(-n3nc4ccc(OCC(F)F)nc4c(-c4ccc(Cl)cc4)c3=O)ccc2n1` [Example 124]: the IC50 on MAT2A homodimer is less than 100 nM; in test [1], less than 100 nM; in the test with HCT116 MTAP−/−, less than 100 nM; in the test with HCT116 MTAP+/+, 100 to 1000 nM.

The values are drawn from patent US12077534B2, “Aza-heterobicyclic inhibitors of MAT2A and methods of use for treating cancer” (Les Laboratoires Servier SAS, priority 2018, dated 2024).
